Laboratory results published in patent publication US9758561B2 (priority 2014, dated 2017).
Converted amounts (≈) assume the structure as drawn. Where two headings read alike, the source gives them in different places.

Columns and labels:
[1] = molecular target: T1, human glucagon receptor (Homo sapiens, UniProt P47871); assay: cAMP response of HEK-293 cells stably expressing human glucagon receptor (HTRF); format: cell-based; conditions: read-out: EC50 hGlucagon-R
T1 construct: expressed in transfected cells; host or cells: HEK-293
T1 sequence (P47871 26-477): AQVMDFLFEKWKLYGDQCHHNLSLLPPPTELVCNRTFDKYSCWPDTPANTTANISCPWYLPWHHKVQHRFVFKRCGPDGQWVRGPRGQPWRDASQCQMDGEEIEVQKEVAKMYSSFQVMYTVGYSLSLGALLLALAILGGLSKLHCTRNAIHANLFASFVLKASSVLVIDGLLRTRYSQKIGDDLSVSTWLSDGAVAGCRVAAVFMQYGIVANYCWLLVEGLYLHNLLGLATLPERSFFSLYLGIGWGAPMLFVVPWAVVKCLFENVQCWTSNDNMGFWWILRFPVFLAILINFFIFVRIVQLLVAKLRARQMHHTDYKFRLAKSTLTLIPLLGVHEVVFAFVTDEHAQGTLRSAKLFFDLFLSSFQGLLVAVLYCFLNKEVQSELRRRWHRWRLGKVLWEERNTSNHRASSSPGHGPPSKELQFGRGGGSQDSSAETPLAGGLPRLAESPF
Protocol: (§1) For preparation, cells were split into T175 culture flasks and grown overnight to near confluency in medium (DMEM/10% FBS). Medium was then removed and cells washed with PBS lacking calcium and magnesium, followed by proteinase treatment with accutase (Sigma-Aldrich cat. no. A6964). Detached cells were washed and resuspended in assay buffer (1×HBSS; 20 mM HEPES, 0.1% BSA, 2 mM IBMX) and cellular density determined. They were then diluted to 400000 cells/ml and 25 μl-aliquots dispensed into the wells of 96-well plates. For measurement, 25 μl of test compound in assay buffer was added to the wells, followed by incubation for 30 minutes at room temperature. […] Potencies of peptidic compounds at the GLP-1, glucagon and GIP receptors were determined by exposing cells expressing human glucagon receptor (hGlucagon R), human GIP receptor (hGIP-R) or human GLP-1 receptor (hGLP-1R) to the listed compounds at increasing concentrations and measuring the formed cAMP as described in Methods.

[2] = molecular target: T2, human GLP-1 receptor (Homo sapiens, UniProt P43220); assay: cAMP response of HEK-293 cells stably expressing human GLP-1 receptor (HTRF); format: cell-based; conditions: Table 6; read-out: EC50 hGLP-1R
T2 construct: expressed in transfected cells; host or cells: HEK-293
T2 sequence (P43220 24-463): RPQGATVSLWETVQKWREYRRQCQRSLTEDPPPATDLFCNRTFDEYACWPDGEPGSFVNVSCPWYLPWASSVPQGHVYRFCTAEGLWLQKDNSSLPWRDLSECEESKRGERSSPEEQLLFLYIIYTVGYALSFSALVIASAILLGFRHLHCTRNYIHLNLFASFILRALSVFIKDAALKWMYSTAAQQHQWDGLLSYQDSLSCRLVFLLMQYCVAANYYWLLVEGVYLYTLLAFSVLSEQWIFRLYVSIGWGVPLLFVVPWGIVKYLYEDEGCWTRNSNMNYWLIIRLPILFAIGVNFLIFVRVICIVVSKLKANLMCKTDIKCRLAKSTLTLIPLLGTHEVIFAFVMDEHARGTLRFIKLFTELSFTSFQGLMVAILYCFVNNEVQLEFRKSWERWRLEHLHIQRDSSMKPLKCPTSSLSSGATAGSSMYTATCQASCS
Protocol: as §1

[3] = molecular target: T3, human GIP receptor (Homo sapiens, UniProt P48546); assay: cAMP response of HEK-293 cells stably expressing human GIP receptor (HTRF); format: cell-based; conditions: Table 6; read-out: EC50 hGIP-R
T3 construct: expressed in transfected cells; host or cells: HEK-293
T3 sequence (P48546 22-466): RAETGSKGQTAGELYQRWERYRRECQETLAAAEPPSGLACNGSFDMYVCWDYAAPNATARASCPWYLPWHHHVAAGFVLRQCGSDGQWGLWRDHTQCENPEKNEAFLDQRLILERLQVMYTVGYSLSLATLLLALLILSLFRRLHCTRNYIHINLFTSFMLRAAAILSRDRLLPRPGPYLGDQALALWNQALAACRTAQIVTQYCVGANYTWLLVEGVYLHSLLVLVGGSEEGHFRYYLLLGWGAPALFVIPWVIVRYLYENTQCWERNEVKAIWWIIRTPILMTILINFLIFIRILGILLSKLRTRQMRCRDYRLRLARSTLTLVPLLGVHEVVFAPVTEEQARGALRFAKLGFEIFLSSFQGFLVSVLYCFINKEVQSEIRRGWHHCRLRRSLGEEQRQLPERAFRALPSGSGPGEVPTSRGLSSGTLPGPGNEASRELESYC
Protocol: as §1

[4] = Stability testing in solution, 7 days at 40° C. (HPLC-UV); format: physicochemical; conditions: for Stability pH 4.5: pH 4.5, 7 days at 40° C. in solution; for Stability pH 7.4: pH 7.4, 7 days at 40° C. in solution
Protocol: After that time course, the sample was centrifuged for 20 min at 4500 rpm and 0.2 μL of the supernatant were analysed with HPLC-UV.
For determination of the amount of the remaining peptide, the peak areas of the target compound at t0 and t7 were compared, resulting in “% remaining peptide”, following the equation % remaining peptide=[(peak area peptide t7)×100]/peak area peptide t0.
The stability is expressed as “% remaining peptide”.

[5] = Solubility testing in buffer (HPLC-UV); format: physicochemical
Protocol: Prior to the testing of solubility and stability of a peptide batch, its purity (HPLC-UV) was determined. […] Therefore, solutions from solid samples were prepared in different buffer systems with a concentration of 10 mg/mL compound based on the previously determined % purity. HPLC-UV was performed after 2 h of gentle agitation from the supernatant, which was obtained by 20 min of centrifugation at 4500 rpm. […] This analysis also served as starting point (t0) for the stability testing.

[6] = pH 4.5, target concentration 10 mg/ml, read-out: solubility pH 4.5
[7] = pH 7.4, target concentration 10 mg/ml, read-out: solubility pH 7.4

SMILES | EC50 ([1]; Table 6) | EC50 [2] | EC50 [3] | Stability pH 4.5 [4] | Stability pH 7.4 [4] | solubility at 2 h [5, 6] | solubility at 2 h [5, 7] | EC50 ([1]; Table 8, comparison Aib vs. Lys in position 27)
CCCCCCCCCCCCCCCCCC(=O)N[C@@H](CCC(=O)NCCCC[C@H](NC(=O)[C@H](CCC(N)=O)NC(=O)[C@H](CCCCN)NC(=O)[C@H](CO)NC(=O)[C@H](CC(C)C)NC(=O)[C@H](CC(=O)O)NC(=O)[C@H](CO)NC(=O)[C@@H](NC(=O)[C@H](Cc1ccccc1)NC(=O)[C@@H](NC(=O)CNC(=O)[C@H](CCC(N)=O)NC(=O)[C@@H](CO)NC(=O)[C@@H](N)Cc1c[nH]cn1)[C@@H](C)O)[C@@H](C)O)C(=O)N[C@@H](CC(=O)O)C(=O)N[C@@H](CCC(=O)O)C(=O)N[C@@H](CCC(=O)O)C(=O)N[C@@H](C)C(=O)N[C@@H](C)C(=O)N[C@@H](CCCNC(=N)N)C(=O)N[C@@H](CC(C)C)C(=O)N[C@@H](Cc1ccccc1)C(=O)N[C@H](C(=O)N[C@@H](CCC(=O)O)C(=O)N[C@@H](Cc1c[nH]c2ccccc12)C(=O)N[C@@H](CC(C)C)C(=O)NC(C)(C)C(=O)N[C@@H](C)C(=O)NCC(=O)NCC(=O)N1CCC[C@H]1C(=O)N[C@@H](CO)C(=O)N[C@@H](CO)C(=O)NCC(=O)N[C@@H](C)C(=O)N1CCC[C@H]1C(=O)N1CCC[C@H]1C(=O)N1CCC[C@H]1C(=O)N[C@@H](CO)C(N)=O)[C@@H](C)CC)C(=O)O [SEQ ID NO: 13, H-dSer-Q-G-T-F-T-S-D-L-S-K-Q-K(γE-x70)-D-E-E-A-A-R-L-F-I-E-W-L-Aib-A-G-G-P-S-S-G-A-P-P-P-S-NH2] | 6.8 pM | 2.7 pM | 2540 pM | – | – | – | – | –
CCCCCCCCCCCCCCCC(=O)N[C@@H](CCC(=O)N[C@@H](CCC(=O)NCCCC[C@H](NC(=O)[C@H](CCC(N)=O)NC(=O)[C@H](CCCCN)NC(=O)[C@H](CO)NC(=O)[C@H](CC(C)C)NC(=O)[C@H](CC(=O)O)NC(=O)[C@H](CO)NC(=O)[C@@H](NC(=O)[C@H](Cc1ccccc1)NC(=O)[C@@H](NC(=O)CNC(=O)[C@H](CCC(N)=O)NC(=O)[C@H](CO)NC(=O)[C@@H](N)Cc1c[nH]cn1)[C@@H](C)O)[C@@H](C)O)C(=O)N[C@@H](CC(=O)O)C(=O)N[C@@H](CCC(=O)O)C(=O)N[C@@H](CCC(=O)O)C(=O)N[C@@H](C)C(=O)N[C@@H](C)C(=O)N[C@@H](CCCNC(=N)N)C(=O)N[C@@H](CC(C)C)C(=O)N[C@@H](Cc1ccccc1)C(=O)N[C@H](C(=O)N[C@@H](CCC(=O)O)C(=O)N[C@@H](Cc1c[nH]c2ccccc12)C(=O)N[C@@H](CC(C)C)C(=O)NC(C)(C)C(=O)N[C@@H](C)C(=O)NCC(=O)NCC(=O)N1CCC[C@H]1C(=O)N[C@@H](CO)C(=O)N[C@@H](CO)C(=O)NCC(=O)N[C@@H](C)C(=O)N1CCC[C@H]1C(=O)N1CCC[C@H]1C(=O)N1CCC[C@H]1C(=O)N[C@@H](CO)C(N)=O)[C@@H](C)CC)C(=O)O)C(=O)O [SEQ ID NO: 11, H-S-Q-G-T-F-T-S-D-L-S-K-Q-K(γE-γE-x53)-D-E-E-A-A-R-L-F-I-E-W-L-Aib-A-G-G-P-S-S-G-A-P-P-P-S-NH2] | 5.1 pM | 1.2 pM | 560 pM | – | – | – | – | –
CCCCCCCCCCCCCCCC(=O)N[C@@H](CCC(=O)N[C@@H](CCC(=O)NCCCC[C@H](NC(=O)[C@H](CCC(N)=O)NC(=O)[C@H](CCCCN)NC(=O)[C@H](CO)NC(=O)[C@H](CC(C)C)NC(=O)[C@H](CC(=O)O)NC(=O)[C@H](CO)NC(=O)[C@@H](NC(=O)[C@H](Cc1ccccc1)NC(=O)[C@@H](NC(=O)CNC(=O)[C@H](Cc1c[nH]cn1)NC(=O)[C@@H](CO)NC(=O)[C@@H](N)Cc1c[nH]cn1)[C@@H](C)O)[C@@H](C)O)C(=O)N[C@@H](CC(=O)O)C(=O)N[C@@H](CCC(=O)O)C(=O)N[C@@H](CCC(=O)O)C(=O)N[C@@H](C)C(=O)N[C@@H](C)C(=O)N[C@@H](CCCNC(=N)N)C(=O)N[C@@H](CC(C)C)C(=O)N[C@@H](Cc1ccccc1)C(=O)N[C@H](C(=O)N[C@@H](CCC(=O)O)C(=O)N[C@@H](Cc1c[nH]c2ccccc12)C(=O)N[C@@H](CC(C)C)C(=O)NC(C)(C)C(=O)N[C@@H](CCCCN)C(=O)N[C@H](C)C(=O)NCC(=O)N1CCC[C@H]1C(=O)N[C@@H](CO)C(=O)N[C@@H](CO)C(=O)NCC(=O)N[C@@H](C)C(=O)N1CCC[C@H]1C(=O)N1CCC[C@H]1C(=O)N1CCC[C@H]1C(=O)N[C@@H](CO)C(N)=O)[C@@H](C)CC)C(=O)O)C(=O)O [SEQ ID NO: 26, H-dSer-H-G-T-F-T-S-D-L-S-K-Q-K(γE-γE-x53)-D-E-E-A-A-R-L-F-I-E-W-L-Aib-K-dAla-G-P-S-S-G-A-P-P-P-S-NH2] | – | 2 pM | – | 92.7 % remaining peptide | 96.6 % remaining peptide | 6800 µg/mL (≈ 1460 µM) | 6700 µg/mL (≈ 1440 µM) | –
CCCCCCCCCCCCCCCC(=O)N[C@@H](CCC(=O)N[C@@H](CCC(=O)NCCCC[C@H](NC(=O)[C@H](CCC(N)=O)NC(=O)[C@H](CCCCN)NC(=O)[C@H](CO)NC(=O)[C@H](CC(C)C)NC(=O)[C@H](CC(=O)O)NC(=O)[C@H](CO)NC(=O)[C@@H](NC(=O)[C@H](Cc1ccccc1)NC(=O)[C@@H](NC(=O)CNC(=O)[C@H](CCC(N)=O)NC(=O)[C@@H](CO)NC(=O)[C@@H](N)Cc1c[nH]cn1)[C@@H](C)O)[C@@H](C)O)C(=O)N[C@@H](CC(=O)O)C(=O)N[C@@H](CCC(=O)O)C(=O)N[C@@H](CCC(=O)O)C(=O)N[C@@H](C)C(=O)N[C@@H](C)C(=O)N[C@@H](CCCNC(=N)N)C(=O)N[C@@H](CC(C)C)C(=O)N[C@@H](Cc1ccccc1)C(=O)N[C@H](C(=O)N[C@@H](CCC(=O)O)C(=O)N[C@@H](Cc1c[nH]c2ccccc12)C(=O)N[C@@H](CC(C)C)C(=O)NC(C)(C)C(=O)N[C@@H](CCCCN)C(=O)N[C@H](C)C(=O)NCC(=O)N1CCC[C@H]1C(=O)N[C@@H](CO)C(=O)N[C@@H](CO)C(=O)NCC(=O)N[C@@H](C)C(=O)N1CCC[C@H]1C(=O)N1CCC[C@H]1C(=O)N1CCC[C@H]1C(=O)N[C@@H](CO)C(N)=O)[C@@H](C)CC)C(=O)O)C(=O)O [SEQ ID NO: 24, H-dSer-Q-G-T-F-T-S-D-L-S-K-Q-K(γE-γE-x53)-D-E-E-A-A-R-L-F-I-E-W-L-Aib-K-dAla-G-P-S-S-G-A-P-P-P-S-NH2] | – | 2.4 pM | – | 81.8 % remaining peptide | 95.4 % remaining peptide | > 8000 µg/mL | 7000 µg/mL (≈ 1500 µM) | –
CCCCCCCCCCCCCCCC(=O)N[C@@H](CCC(=O)N[C@@H](CCC(=O)NCCCC[C@H](NC(=O)[C@H](CCC(N)=O)NC(=O)[C@H](CCCCN)NC(=O)[C@H](CO)NC(=O)[C@H](CC(C)C)NC(=O)[C@H](CC(=O)O)NC(=O)[C@H](CO)NC(=O)[C@@H](NC(=O)[C@H](Cc1ccccc1)NC(=O)[C@@H](NC(=O)CNC(=O)[C@H](Cc1c[nH]cn1)NC(=O)[C@@H](CO)NC(=O)[C@@H](N)Cc1c[nH]cn1)[C@@H](C)O)[C@@H](C)O)C(=O)N[C@@H](CCC(=O)O)C(=O)N[C@@H](CCC(=O)O)C(=O)N[C@@H](CCC(=O)O)C(=O)N[C@@H](C)C(=O)N[C@@H](C)C(=O)N[C@@H](CCCNC(=N)N)C(=O)N[C@@H](CC(C)C)C(=O)N[C@@H](Cc1ccccc1)C(=O)N[C@H](C(=O)N[C@@H](CCC(=O)O)C(=O)N[C@@H](Cc1c[nH]c2ccccc12)C(=O)N[C@@H](CC(C)C)C(=O)N[C@@H](CCCCN)C(=O)N[C@@H](C)C(=O)NCC(=O)NCC(=O)N1CCC[C@H]1C(=O)N[C@@H](CO)C(=O)N[C@@H](CO)C(=O)NCC(=O)N[C@@H](C)C(=O)N1CCC[C@H]1C(=O)N1CCC[C@H]1C(=O)N1CCC[C@H]1C(=O)N[C@@H](CO)C(N)=O)[C@@H](C)CC)C(=O)O)C(=O)O [SEQ ID NO: 30, H-dSer-H-G-T-F-T-S-D-L-S-K-Q-K(γE-γE-x53)-EEEAARLFIEWLKAGGPSSGAPPPS-NH2, reference compound] | – | – | – | – | – | – | – | 5.1 pM
